The record followed here is ChEMBL document CHEMBL3886983, “Pyridinyl and pyrimidinyl sulfoxide and sulfone derivatives” (2016).

The assay deals with Nicotinamide phosphoribosyltransferase (Homo sapiens, UniProt P43490). Kind of assay: Biochemical Inhibition Assay: The NAMPT Enzymatic Reaction. The NAMPT enzymatic reactions were carried out in Buffer A (50 mM Hepes pH 7.5, 50 mM NaCl, 5 mM MgCl2, and 1 mM THP) in 96-well V-bottom plates. The compound titrations were performed in a separate dilution plate by serially diluting the compounds in DMSO to make a 100x stock. Buffer A (89 uL) containing 33 nM of NAMPT protein was added to 1 uL of 100x compound plate containing controls (e.g. DMSO or blank). The compound and enzyme mixture was incubated for 15 min at rt, then 10 uL of 10x substrate and co-factors in Buffer A were added to the test well to make a final concentration of 1 uM NAM, […] 5-Phospho-D-ribose 1-diphosphate (PRPP), and 2.5 mM Adenosine 5'-triphosphate (ATP). The reaction was allowed to proceed for 30 min at rt, then was quenched with the addition of 11 uL of a solution of formic acid and L-Cystathionine to make a final concentration of 1% formic acid and 10 uM L-Cystathionine. Background and signal strength was determined by addition (or non-addition) of a serial dilution of NMN to a pre-quenched enzyme and cofactor mix.
Nicotinamide phosphoribosyltransferase, sequence (P43490 whole entry): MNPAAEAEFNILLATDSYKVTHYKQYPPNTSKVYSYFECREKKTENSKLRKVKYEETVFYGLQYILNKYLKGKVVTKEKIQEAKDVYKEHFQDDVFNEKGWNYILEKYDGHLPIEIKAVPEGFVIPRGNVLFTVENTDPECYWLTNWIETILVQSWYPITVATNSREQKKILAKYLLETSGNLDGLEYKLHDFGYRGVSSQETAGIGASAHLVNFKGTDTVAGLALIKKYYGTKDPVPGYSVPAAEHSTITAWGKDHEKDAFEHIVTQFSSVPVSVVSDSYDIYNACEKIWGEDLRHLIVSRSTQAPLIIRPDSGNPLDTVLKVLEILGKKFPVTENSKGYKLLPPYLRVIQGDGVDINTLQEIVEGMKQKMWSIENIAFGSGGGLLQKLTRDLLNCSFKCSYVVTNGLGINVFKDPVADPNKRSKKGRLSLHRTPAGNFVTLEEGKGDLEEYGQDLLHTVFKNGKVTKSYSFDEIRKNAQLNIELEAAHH

As a reminder, the IC50 is the concentration at which inhibition is half-maximal. On to `CN1CCN(c2ccc(S(=O)(=O)c3ccc(CNC(=O)c4cc5ccncc5o4)nc3)cn2)CC1`, for which the IC50 was found to be 916 pM.
